Data as given in patent US20210386367A1, “DEVICES AND SYSTEMS FOR GASTROINTESTINAL MICROBIOME DETECTION AND MANIPULATION” (Progenity, Inc., priority 2018, published 2021).
≈ marks a conversion by molar mass, not a printed value. Entries after “also recorded” stand apart in the source; their conditions may differ. Like-named read-outs stand apart in the source and are kept apart here.

Legend:
[1] = system: Bacteroides fragilis; assay: Agar dilution MIC, 30 clinical isolates; assay type: cell-based; details: for Mode: modal MIC
[2] = system: Veillonella spp.; assay: Agar dilution MIC, 30 clinical isolates; assay type: cell-based; details: for Mode: modal MIC
[3] = system: B. vulgatus ATCC 8482; assay: Time-kill assay; assay type: cell-based, Bacteroides vulgatus; details: 2×, 4×, 8× MIC; 2, 6, 24, 48 hr
[4] = system: E. coli (ATCC 25922, ATCC 35218, MMX 1312); assay: Agar dilution MIC (spontaneous mutation study; strain in conditions); assay type: cell-based, Escherichia coli; details: for MIC: Escherichia coli
[5] = system: E. coli ATCC 35218 (TEM-1 β-lactamase producer); assay: Broth microdilution MIC (time-kill study); assay type: cell-based, Escherichia coli
[6] = system: S. agalactiae ATCC 13813; assay: Broth microdilution MIC (time-kill study); assay type: cell-based, Streptococcus agalactiae
[7] = system: Streptococcus spp.; assay: Spontaneous mutation frequency assay; assay type: cell-based; details: for Spontaneous Mutation Frequency: selection at 4× and 8× MIC
Procedure: Initial values of the MIC were determined by agar dilution in accordance with guidelines from the Clinical and Laboratory Standards Institute (CLSI; (1) “Methods for Dilution Antimicrobial Susceptibility Tests for Bacteria That Grow Aerobically; Approved Standard; 11th ed.,” CLSI standard M07, 2018; (2) “Methods for Antimicrobial Susceptibility Testing of Anaerobic Bacteria; Approved Standard—Eighth Edition,” CLSI document M11-A8, 2012.).
The agar plates were prepared by mixing a ratio of 1.0 mL of concentrated drug to 49.0 mL of the appropriate molten (47° C.) agar; the drug-supplemented agar was mixed, poured into 15-by-150 mm petri dishes and allowed to solidify and dry at room temperature prior to inoculation. […] Each plate was allowed to cool at room temperature for at least 1 hr.
The isolates were streaked onto the appropriate agar medium and incubated for 20 hr (aerobes) or 48 hr (Bacteroides under anaerobic conditions). Using a sterile swab, several well-isolated colonies were removed and resuspended in sterile saline at a heavy cell density. Each plate was inoculated with 0.5 mL of the cell suspension (each test concentration was inoculated in duplicate). The target inoculum for each spontaneous mutation plate was 10^9-10 CFU. In addition, a portion of the inoculum from each isolate was enumerated by making dilutions, spreading on agar and counting colonies.
Once the inoculum was absorbed into the agar, the plates were incubated at 35° C. Aerobes were examined at 24 and 48 hr, and resulting colonies were counted. Bacteroides were incubated anaerobically for 48-72 hr in the anaerobe chamber and colonies were counted.
Colony counts from plates used to enumerate the initial inoculum density and from the resulting spontaneous mutation frequency test plates were determined. The inoculum size was calculated as CFU inoculated per plate. The spontaneous mutation frequency was calculated using the counts from duplicate spontaneous mutation assay test plates as follows:
If there were no colonies on the antibiotic selection plates, the spontaneous mutation frequency was reported as less than the frequency observed with one colony to indicate that the spontaneous mutation frequency was less than the limit of detection (one CFU). […] The mutation prevention concentration (MPC) was reported as the lowest concentration for which no mutants were selected.

[8] = 30 Bacteroides fragilis clinical isolates
[9] = 30 Veillonella spp. clinical isolates
[10] = Bacteroides fragilis, read-out: MIC50
[11] = Bacteroides fragilis, read-out: MIC90
[12] = read-out: Agar MIC, E. coli ATCC 25922
[13] = read-out: Agar MIC, E. coli ATCC 35218
[14] = read-out: Agar MIC, E. coli MMX 1312
[15] = S. agalacttae ATCC 13813 (so in the source)
[16] = Streptococcus agalactiae, ATCC13813, broth microdilution, read-out: MIC

Compound	% S [1, 8] [%]	MIC50 [1, 8] [µg/mL]	MIC90 [1, 8] [µg/mL]	MIC range [1, 8] [µg/mL]	Mode [1, 8] [µg/mL]	% R [2, 9] [%]	% S [2, 9] [%]	MIC50 [2, 9] [µg/mL]	MIC90 [2, 9] [µg/mL]	Mode [2, 9] [µg/mL]	isolates with intermediate resistance [1]	% I [1, 8] [%]	MIC50 [1, 10] [µg/mL]	MIC90 [1, 11] [µg/mL]	time-kill kinetics outcome (bactericidal = ≥3 log reduction in CFU per mL) [3]	MIC [4, 12] [µg/mL]	MIC [4, 13] [µg/mL]	MIC ([5]; E. coli ATCC 35218)	MIC [6, 15] [µg/mL]	Spontaneous Mutation Frequency [7]	also measured
Cc1ncc([N+](=O)[O-])n1CCO [MTZ]	100	1 (≈ 5.84 µM)	2 (≈ 11.7 µM)	0.25 to 2	1	17	83	4 (≈ 23.4 µM)	>32	4	–	–	–	–	–	–	–	–	–	–	–
CO/N=C(\C(=O)N[C@@H]1C(=O)N2C(C(=O)O)=C(CSc3nc(=O)c(=O)[nH]n3C)CS[C@H]12)c1csc(N)n1 [ceftriaxone]	40	32 (≈ 57.7 µM)	>128	8 to 128	16	3	87	16 (≈ 28.9 µM)	32 (≈ 57.7 µM)	16	27%	27	32 (≈ 57.7 µM)	> 128	bactericidal effect was observed at 8×MIC at 6, 24 and 48 hr; at 4×MIC at 6 and 24 hr; and at 2×MIC at 48 hr	0.06 (≈ 0.108 µM)	0.03 (≈ 0.0541 µM)	0.03 µg/mL (≈ 0.0541 µM)	0.015 (≈ 0.027 µM)	≤ 9.52×10^−10	isolates resistant [1]: Thirty-three; % R [1, 8]: 33%; MIC [4, 14]: 4 µg/mL (≈ 7.21 µM); MIC ([4]; read-out: MIC value (agar dilution), E. coli MMX 1312): 4 µg/mL (≈ 7.21 µM); MIC ([4]; read-out: MIC values (agar dilution), E. coli excluding E. coli MMX 1312 (stated jointly with Streptococcus spp.)): 0.03 to 0.06 µg/mL (≈ 0.0541 to 0.108 µM); MIC ([5]; Escherichia coli, ATCC35218): 0.03 µg/mL (≈ 0.0541 µM); isolates resistant [2]: 3%; isolates with intermediate resistance [2]: 10%; % I [2, 9]: 10%; MIC50 ([2]; Veillonella, read-out: MIC50): 16 µg/mL (≈ 28.9 µM); MIC90 ([2]; Veillonella, read-out: MIC90): 32 µg/mL (≈ 57.7 µM); MIC [6, 16]: 0.015 µg/mL (≈ 0.027 µM)
C[C@@H](O)[C@H]1C(=O)N2C(C(=O)O)=C(S[C@@H]3CN[C@H](C(=O)N(C)C)C3)[C@H](C)[C@H]12 [meropenem]	80	0.25 (≈ 0.652 µM)	>8	–	0.25	–	77	1 (≈ 2.61 µM)	8 (≈ 20.9 µM)	0.12	Twenty	20	0.25 (≈ 0.652 µM)	> 8	bactericidal effect at 24 and 48 hr at 4× and 8×MIC	0.015 (≈ 0.0391 µM)	0.015 (≈ 0.0391 µM)	0.015 µg/mL (≈ 0.0391 µM)	0.008 (≈ 0.0209 µM)	≤ 9.52×10^−10	relative activity among drugs tested [1]: meropenem and rifaximin had similar activity; MIC [4, 14]: 0.015 µg/mL (≈ 0.0391 µM); MIC ([4]; read-out: MIC values (agar dilution), over evaluated E. coli isolates (range stated jointly with other groups)): 0.008 to 0.12 µg/mL (≈ 0.0209 to 0.313 µM); MIC ([5]; Escherichia coli, ATCC35218): 0.015 µg/mL (≈ 0.0391 µM); isolates with intermediate resistance [2]: Twenty-three; relative activity among drugs tested [2]: most active drug evaluated; also recorded: most active agent; % I [2, 9]: 23%; MIC range [2, 9]: 0.12 to 8 µg/mL; MIC50 ([2]; Veillonella, read-out: MIC50): 1 µg/mL (≈ 2.61 µM); MIC90 ([2]; Veillonella, read-out: MIC90): 8 µg/mL (≈ 20.9 µM); MIC [6, 16]: 0.008 µg/mL (≈ 0.0209 µM); colonies on selection plates [7]: No Streptococcus spp. or Bacteroides spp. colonies were selected
CO[C@H]1/C=C/O[C@@]2(C)Oc3c(C)c(O)c4c(O)c(c5c(nc6cc(C)ccn65)c4c3C2=O)NC(=O)/C(C)=C\C=C\[C@H](C)[C@H](O)[C@@H](C)[C@@H](O)[C@@H](C)[C@H](OC(C)=O)[C@@H]1C [rifaximin]	–	0.25 (≈ 0.318 µM)	0.25 (≈ 0.318 µM)	–	0.25	–	–	4 (≈ 5.09 µM)	8 (≈ 10.2 µM)	2	–	–	–	–	bactericidal against this organism at 8×MIC at 6 hr; and at 2 and 4×MIC at 6, 24 and 48 hr	–	–	4 µg/mL (≈ 5.09 µM)	0.25 (≈ 0.318 µM)	≥ 2.77×10^−8	MIC50 [1]: 0.25 µg/mL (≈ 0.318 µM); MIC90 [1]: 0.25 µg/mL (≈ 0.318 µM); relative activity among drugs tested [1]: meropenem and rifaximin had similar activity; Agar MIC ([4]; E. coli ATCC 25922): >4 µg/mL; Agar MIC ([4]; E. coli ATCC 35218): >4 µg/mL; Agar MIC ([4]; E. coli MMX 1312): 4 µg/mL; MIC values (agar dilution) ([4]; over evaluated E. coli isolates (range stated jointly with other groups)): ≥ 4 µg/mL; MIC ([5]; broth microdilution): 4 µg/mL (≈ 5.09 µM); MIC50 [2]: 4 µg/mL (≈ 5.09 µM); MIC90 [2]: 8 µg/mL (≈ 10.2 µM); MIC range [2, 9]: 0.12 to 16 µg/mL; MIC ([6]; broth microdilution): 0.25 µg/mL (≈ 0.318 µM); Spontaneous Mutation Frequency ([7]; listed as rifampin): ~10^−8
CN[C@H](CC(C)C)C(=O)N[C@H]1C(=O)N[C@@H](CC(N)=O)C(=O)N[C@H]2C(=O)N[C@H]3C(=O)N[C@H](C(=O)N[C@H](C(=O)O)c4cc(O)cc(O)c4-c4cc3ccc4O)[C@H](O)c3ccc(c(Cl)c3)Oc3cc2cc(c3O[C@@H]2O[C@H](CO)[C@@H](O)[C@H](O)[C@H]2O[C@H]2C[C@](C)(N)[C@H](O)[C@H](C)O2)Oc2ccc(cc2Cl)[C@H]1O [vancomycin, Vancomycin]	–	–	–	–	–	–	–	–	–	–	–	–	–	–	–	–	–	–	–	–	MIC ([5]; Escherichia coli, ATCC35218, E. coli ATCC 35218, read-out: MIC): > 16 µg/mL; MIC ([6]; Streptococcus agalactiae, ATCC13813, S. agalacttae ATCC 13813 (so in the source), read-out: MIC): 0.5 µg/mL (≈ 0.345 µM)
piperacillin/tazobactam [piperacillin-tazobactam]	–	–	–	–	–	–	–	–	–	–	–	–	–	–	–	–	–	2/4	0.06	–	–
